This passage reports MIC results from ChEMBL document CHEMBL1142168, “Prevalence and susceptibility testing of new species of pseudallescheria and scedosporium in a collection of clinical mold isolates” (2007).

A short description of assay [1]: Antifungal activity against Scedosporium aurantiacum sputum isolate CNM-CM-2631 at 48 hrs. Format: functional.
Assay [2] concerns Scedosporium aurantiacum. Put plainly: Antifungal activity against Scedosporium aurantiacum ear swab isolate CNM-CM-2846 at 48 hrs. Format: functional.
Assay [3] concerns Scedosporium aurantiacum. Kind of assay: Antifungal activity against Scedosporium aurantiacum corneal isolate CNM-CM-2923 at 48 hrs. Format: functional. As to conditions: Cornea.
A short description of assay [4]: Antifungal activity against Scedosporium aurantiacum bronchial aspirate isolate CNM-CM-4183 at 48 hrs. Format: functional.
Another assay has as its system Scedosporium apiospermum. Put plainly: Antifungal activity against Scedosporium apiospermum isolates at 48 hrs.

Values after ≈ are worked out from the molar mass of the structure shown.

For the compound `C[C@@H]1[C@H](O)[C@@H](C)/C=C/C=C/C=C/C=C/C=C/C=C/C=C/[C@H](O[C@@H]2O[C@H](C)[C@@H](O)[C@H](N)[C@@H]2O)C[C@@H]2O[C@](O)(C[C@@H](O)C[C@@H](O)[C@H](O)CC[C@@H](O)C[C@@H](O)CC(=O)O[C@H]1C)C[C@H](O)[C@H]2C(=O)O` [AMPHOTERICIN B], the minimum inhibitory concentration (MIC) in assay [1] stood at 4 µg/mL (≈ 4.33 µM); with Scedosporium aurantiacum [2], 16 µg/mL (≈ 17.3 µM); with Scedosporium aurantiacum [3], 8 µg/mL (≈ 8.66 µM); in assay [4], 8 µg/mL (≈ 8.66 µM); in the assay with Scedosporium apiospermum, 0.25 µg/mL (≈ 0.271 µM).
Consider `CCC(C)n1ncn(-c2ccc(N3CCN(c4ccc(OCC5COC(Cn6cncn6)(c6ccc(Cl)cc6Cl)O5)cc4)CC3)cc2)c1=O` (stereo not given) [ITRACONAZOLE], for which the minimal inhibitory concentration (MIC) in assay [1] worked out at 2 µg/mL (≈ 2.83 µM); in the assay on Scedosporium aurantiacum [2], 8 µg/mL (≈ 11.3 µM); in the assay on Scedosporium aurantiacum [3], 16 µg/mL (≈ 22.7 µM); in assay [4] it was 16 µg/mL (≈ 22.7 µM); against Scedosporium apiospermum it was 0.25 µg/mL (≈ 0.354 µM).
As to `C[C@@H](c1ncncc1F)[C@](O)(Cn1cncn1)c1ccc(F)cc1F` [VORICONAZOLE], the minimum inhibitory concentration (MIC) in assay [1] was determined as 0.5 µg/mL (≈ 1.43 µM); against Scedosporium aurantiacum [2], 1 µg/mL (≈ 2.86 µM); in the assay on Scedosporium aurantiacum [3], 16 µg/mL (≈ 45.8 µM); in assay [4] it was 0.5 µg/mL (≈ 1.43 µM); in the assay with Scedosporium apiospermum, 0.125 µg/mL (≈ 0.358 µM).
